Experimental data reported in US12448372B2, “Class of triaromatic compounds targeting bifunctional phosphorylation site of STAT3 and applications thereof” (SHANGHAI YUYAO BIOTECH LTD., priority 2019, dated 2025).
Read-outs that look alike come from different tables or passages of the source.

Assays:
STAT3 protein = STAT3 protein (Homo sapiens, UniProt P40763); assay: Binding activity to STAT3 protein by microscale thermophoresis (MST); conditions: purified STAT3 recombinant protein
Source text: (1) Determination of Binding Activities of Compounds to STAT3 Protein by Microscale Thermophoresis (MST) Method
The microscale thermophoresis (MST) technique is a simple, rapid, and accurate method for quantifying biomolecular interactions. It can measure the movement of molecules in a microscopic temperature gradient field, as well as detect changes of molecular hydration shell, charge and size. When the Nanotemper microscale thermophoresis instrument locally heated by a infrared laser, molecules will move in a directional manner, then the molecular distribution ratio in the temperature gradient field are analyzed by a fluorescence to detect whether a small molecule compound binds to a target protein. The experimental operation is as follows: firstly, compounds to be tested are diluted in a gradient using MST test buffer, total 16 concentrations being configured; subsequently, the purified STAT3 recombinant protein is labeled using the HIS tag labeling kit, and the final concentration of the labeled protein is 100-200 nM; the labeled STAT3 proteins are well mixed with the diluted compounds and incubated and protected from light for 30 minutes; finally the samples were loaded by capillary tube and detected on the instrument. The binding constants (K^D) of small molecules to STAT3 protein were analyzed by Mo. analysis software.

Capan-2 = assay: Cell proliferation by MTS method, Capan-2; assay type: cell-based; conditions: Table 1, Capan-2, read-out: Tumour cell proliferative activity/IC50(nM) Pancreatic Cancer Capan-2
Source text: (§1) (2) Detection of Cell Proliferation by MTS Method
(§2) The MTS assay is a method for indirectly determining the number of living cells via colourimetric method. MTS is a newly synthesised tetrazole compound that reflects cell viability, which can be reduced by succinate dehydrogenase in the mitochondria of living cells to an orange-coloured formazan with an absorbance of the reduced product measured at 490 nm being in proportion to the number of living cells, thus reflecting the cell viability. This assay can be used to evaluate the effect of the compound on the proliferation of pancreatic cancer cells, thereby determining the inhibitory effect of the compound on the proliferation of pancreatic cancer cells and to calculate the IC^50. Each cells were inoculated uniformly into a 96-well plate at a density of 1-20×10^3 cells/well, 100 μL per well, and placed in a constant temperature incubator until the cells adhered to the wall. The control group was added with the corresponding medium and the experimental groups were given different concentrations of the compound prepared by the examples of the present invention, and the cells were taken out 24-96 h after administration for observing the cell state under a microscope. Under light-proof conditions, MTS was added and well mixed, the mixture was placed in a constant temperature incubator at 37° C., and the light absorption value were measured using an enzyme marker at 490 nm and the experiment was repeated for three times, IC50 was calculated with GraphPad5 Prism software.

MKN45 = assay: Cell proliferation by MTS method, MKN45; assay type: cell-based; conditions: Table 1, MKN45, read-out: Tumour cell proliferative activity/IC50(nM) gastric Cancer MKN45
Source text: as §1, §2

Huh7 = assay: Cell proliferation by MTS method, Huh7; assay type: cell-based; conditions: Table 1, Huh7, read-out: Tumour cell proliferative activity/IC50(nM) Liver Cancer Huh7
Source text: as §1, §2

HCC827 = assay: Cell proliferation by MTS method, HCC827; assay type: cell-based; conditions: Table 1, HCC827, read-out: Tumour cell proliferative activity/IC50(nM) Lung Cancer HCC827
Source text: as §1, §2

Chain of STAT3 protein (P40763 whole entry): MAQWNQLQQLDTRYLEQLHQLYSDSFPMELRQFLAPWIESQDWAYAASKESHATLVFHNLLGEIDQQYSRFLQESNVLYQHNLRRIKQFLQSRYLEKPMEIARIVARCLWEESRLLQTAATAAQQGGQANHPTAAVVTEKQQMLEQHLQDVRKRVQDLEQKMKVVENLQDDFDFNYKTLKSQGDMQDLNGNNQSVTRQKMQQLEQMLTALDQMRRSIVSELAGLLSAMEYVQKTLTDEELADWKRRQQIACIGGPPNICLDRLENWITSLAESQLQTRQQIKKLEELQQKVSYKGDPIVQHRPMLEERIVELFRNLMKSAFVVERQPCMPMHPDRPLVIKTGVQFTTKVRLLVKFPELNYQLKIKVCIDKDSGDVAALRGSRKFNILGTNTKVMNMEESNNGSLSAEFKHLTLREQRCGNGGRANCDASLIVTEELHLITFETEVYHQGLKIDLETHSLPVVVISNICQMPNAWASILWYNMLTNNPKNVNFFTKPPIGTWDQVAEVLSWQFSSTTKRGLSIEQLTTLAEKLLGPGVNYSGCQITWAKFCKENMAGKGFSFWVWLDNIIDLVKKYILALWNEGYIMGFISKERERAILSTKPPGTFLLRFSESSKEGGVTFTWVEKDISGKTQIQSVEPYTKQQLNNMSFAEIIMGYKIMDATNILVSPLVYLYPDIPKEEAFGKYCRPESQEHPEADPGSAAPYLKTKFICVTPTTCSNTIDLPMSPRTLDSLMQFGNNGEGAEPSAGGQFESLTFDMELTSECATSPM

| Structure (SMILES) | Kd (STAT3 protein) [µM] | IC50 (MKN45; Homo sapiens, MKN-45) [nM] | IC50 (Huh7; Homo sapiens, Huh-7) [nM] | IC50 (HCC827; Homo sapiens) [nM] | IC50 (Capan-2; Homo sapiens) [nM] | IC50 (Capan-2) [nM] | IC50 (MKN45) [nM] | IC50 (Huh7) [nM] | IC50 (HCC827) [nM] |
| --- | --- | --- | --- | --- | --- | --- | --- | --- | --- |
| Cn1c(C(=O)N2CCN(Cc3ccc(OCC(F)(F)F)cc3)CC2)cc2ccc(Oc3cnc(-c4nc(-c5ccccc5F)no4)cn3)cc21 [Example 3, (6-((5-(3-(2-fluorophenyl)-1,2,4-oxadiazol-5-yl)pyrazin-2-yl)oxy)1-methyl-1H-indol-2-yl)(4-(4-(2,2,2-trifluoroethoxy)benzyl)piperazin-1-yl)methanone] | < 0.01 | < 10 | < 10 | < 10 | < 10 | – | – | – | – |
| Cn1c(C(=O)N2CCN(Cc3ccc(OCC(F)(F)F)cc3)CC2)cc2ccc(Oc3cnc(-c4nc(-c5ccccc5)no4)cn3)cc21 [Example 1, 1-methyl-(6-((5-(3-phenyl-1,2,4-oxadiazol-5-yl)pyrazin-2-yl)oxy)-1H-indol-2-yl)(4-(4-(2,2,2-trifluoroethoxy)benzyl)piperazin-1-yl)methanone] | < 0.01 | – | – | – | – | < 10 | < 10 | < 10 | < 10 |
| Cn1c(C(=O)N2CCN(Cc3ccc(OCC(F)(F)F)cc3)CC2)cc2ccc(Oc3cnc(-c4nc(-c5ccc(OC(F)(F)F)cc5)no4)cn3)cc21 [Example 13, (6-((5-(3-(4-(trifluoromethoxy)phenyl)-1,2,4-oxadiazol-5-yl)pyrazin-2-yl)oxy)-1-methyl-1H-indol-2-yl) (4-(4-(2,2,2-trifluoroethoxy)benzyl)piperazin-1-yl)methanone] | < 0.01 | < 10 | < 10 | < 10 | < 10 | – | – | – | – |
| O=C(c1cc2ccc(Oc3cnc(-c4nc(-c5ccc(C(F)(F)F)cc5)no4)cn3)cc2[nH]1)N1CCN(Cc2ccc(OCC(F)(F)F)cc2)CC1 [Example 14, (6-((5-(3-(4-(trifluoromethyl)phenyl)-1,2,4-oxadiazol-5-yl)pyrazin-2-yl)oxy)-1H-indol-2-yl) (4-(4-(2,2,2-trifluoroethoxy)benzyl)piperazin-1-yl)methanone] | < 0.1 | < 100 | < 100 | < 100 | < 100 | – | – | – | – |
| Cn1c(C(=O)N2CCN(Cc3ccc(OCC(F)(F)F)cc3)CC2)cc2ccc(Oc3cnc(-c4nc(-c5cccc(F)c5)no4)cn3)cc21 [Example 4, (6-((5-(3-(3-fluorophenyl)-1,2,4-oxadiazol-5-yl)pyrazin-2-yl)oxy)1-methyl-1H-indol-2-yl)(4-(4-(2,2,2-trifluoroethoxy)benzyl)piperazin-1-yl)methanone] | < 0.01 | < 10 | < 10 | < 10 | < 10 | – | – | – | – |
| CCn1c(C(=O)N2CCN(Cc3ccc(OCC(F)(F)F)cc3)CC2)cc2ccc(Oc3cnc(-c4nc(-c5ccc(C(F)(F)F)cc5)no4)cn3)cc21 [Example 15, (1-ethyl-6-((5-(3-(4-(trifluoromethyl)phenyl)-1,2,4-oxadiazol-5-yl)pyrazin-2-yl)oxy)-1H-indol-2-yl)(4-(4-(2,2,2-trifluoromethoxy)benzyl)piperazin-1-yl)methanone] | < 0.01 | < 10 | < 10 | < 10 | < 10 | – | – | – | – |
| Cn1c(C(=O)N2CCN(Cc3ccc(OCC(F)(F)F)cc3)CC2)cc2ccc(Oc3cnc(-c4nc(-c5ccc(F)cc5)no4)cn3)cc21 [Example 2, (6-((5-(3-(4-fluorophenyl)-1,2,4-oxadiazol-5-yl)pyrazin-2-yl)oxy)-1-methyl-1H-indol-2-yl)(4-(4-(2,2,2-trifluoroethoxy)benzyl)piperazin-1-yl)methanone] | < 0.01 | < 10 | < 10 | < 10 | < 10 | – | – | – | – |
| COc1cccc(-c2noc(-c3cnc(Oc4ccc5cc(C(=O)N6CCN(Cc7ccc(OCC(F)(F)F)cc7)CC6)n(C)c5c4)cn3)n2)c1 [Example 10, (6-((5-(3-(3-methoxyphenyl)-1,2,4-oxadiazol-5-yl)pyrazin-2-yl)oxy)-1-methyl-1H-indol-2-yl) (4-(4-(2,2,2-trifluoroethoxy)benzyl)piperazin-1-yl)methanone] | < 0.01 | < 10 | < 10 | < 10 | < 10 | – | – | – | – |
| COc1ccccc1-c1noc(-c2cnc(Oc3ccc4cc(C(=O)N5CCN(Cc6ccc(OCC(F)(F)F)cc6)CC5)n(C)c4c3)cn2)n1 [Example 9, (6-((5-(3-(2-methoxyphenyl)-1,2,4-oxadiazol-5-yl)pyrazin-2-yl)oxy)-1-methyl-1H-indol-2-yl) (4-(4-(2,2,2-trifluoroethoxy)benzyl)piperazin-1-yl)methanone] | < 0.01 | < 10 | < 10 | < 10 | < 10 | – | – | – | – |
| CCCn1c(C(=O)N2CCN(Cc3ccc(OCC(F)(F)F)cc3)CC2)cc2ccc(Oc3cnc(-c4nc(-c5ccc(C(F)(F)F)cc5)no4)cn3)cc21 [Example 16, (1-propyl-6-((5-(3-(4-(trifluoromethyl)phenyl)-1,2,4-oxadiazol-5-yl)pyrazin-2-yl)oxy)-1H-indol-2-yl)(4-(4-(2,2,2-trifluoromethoxy)benzyl)piperazin-1-yl)methanone] | < 0.1 | < 100 | < 100 | < 100 | < 100 | – | – | – | – |

More lines, main results first:

| Kd (STAT3 protein) [µM] | IC50 (MKN45; Homo sapiens, MKN-45) [nM] | IC50 (Huh7; Homo sapiens, Huh-7) [nM] | IC50 (HCC827; Homo sapiens) [nM] | Structure (SMILES) | IC50 (Capan-2; Homo sapiens) [nM] | IC50 (Capan-2) [nM] | IC50 (MKN45) [nM] | IC50 (Huh7) [nM] | IC50 (HCC827) [nM] |
| --- | --- | --- | --- | --- | --- | --- | --- | --- | --- |
| < 0.1 | < 1000 | < 1000 | < 1000 | CCN1CCN(C(=O)c2cc3ccc(Oc4cnc(-c5nc(-c6ccc(C(F)(F)F)cc6)no5)cn4)cc3n2C)CC1 [Example 35, (4-ethylpiperazin-1-yl)(1-methyl-6-((5-(3-(4-(trifluoromethyl)phenyl)-1,2,4-oxadiazol-5-yl)pyrazin-2-yl)oxy)-1H-indol-2-yl)methanone] | < 1000 | – | – | – | – |
| < 0.1 | < 100 | < 100 | < 100 | COc1ccc(CN2CCN(C(=O)c3cc4ccc(Oc5cnc(-c6nc(-c7ccc(C(F)(F)F)cc7)no6)cn5)cc4n3C)CC2)cc1 [Example 31, (4-(4-methoxybenzyl)piperazin-1-yl)(1-methyl-6-((5-(3-(4-(trifluoromethyl)phenyl)-1,2,4-oxadiazol-5-yl)pyrazin-2-yl)oxy)-1H-indol-2-yl)methanone] | < 100 | – | – | – | – |
| < 0.01 | < 10 | < 10 | < 10 | CC(C)C(=O)n1c(C(=O)N2CCN(Cc3ccc(OCC(F)(F)F)cc3)CC2)cc2ccc(Oc3cnc(-c4nc(-c5ccc(C(F)(F)F)cc5)no4)cn3)cc21 [Example 19] | < 10 | – | – | – | – |
| < 0.1 | < 1000 | < 1000 | < 1000 | CCOC(=O)Cn1c(C(=O)N2CCN(Cc3ccc(OCC(F)(F)F)cc3)CC2)cc2ccc(Oc3cnc(-c4nc(-c5ccc(C(F)(F)F)cc5)no4)cn3)cc21 [Example 21] | < 1000 | – | – | – | – |
| < 0.1 | < 100 | < 100 | < 100 | Cn1c(C(=O)N2CCN(Cc3ccc(Br)cc3)CC2)cc2ccc(Oc3cnc(-c4nc(-c5ccc(C(F)(F)F)cc5)no4)cn3)cc21 [Example 28, (4-(4-bromobenzyl)piperazin-1-yl)(1-methyl-6-((5-(3-(4-(trifluoromethyl)phenyl)-1,2,4-oxadiazol-5-yl)pyrazin-2-yl)oxy)-1H-indol-2-yl)methanone] | < 100 | – | – | – | – |
| < 1 | < 1000 | < 1000 | < 1000 | COC(=O)Cn1c(C(=O)N2CCN(Cc3ccc(OCC(F)(F)F)cc3)CC2)cc2ccc(Oc3cnc(-c4nc(-c5ccc(C(F)(F)F)cc5)no4)cn3)cc21 [Example 20] | < 1000 | – | – | – | – |
| < 0.1 | < 1000 | < 1000 | < 1000 | CCCN1CCN(C(=O)c2cc3ccc(Oc4cnc(-c5nc(-c6ccc(C(F)(F)F)cc6)no5)cn4)cc3n2C)CC1 [Example 36] | < 1000 | – | – | – | – |
